Reference: patent US20240245633A1, “ROR Gamma Agonists as Enhancers of Protective Immunity” (University of Florida Research Foundation, Incorporated, priority 2015, published 2024)

What was measured:
[1] = target: T1, full length RORγt (Homo sapiens, UniProt P51449); assay: Full-length RORγt co-transfection with 5×RORE-Luc reporter in HEK293T cells; assay type: cell-based; settings: 2 μM ursolic acid
T1 construct: full length RORγt was co-transfected along with a luciferase reporter; expressed in transfected cells; host or cells: HEK293T
T1 sequence (P51449 1-497 isoform P51449-2): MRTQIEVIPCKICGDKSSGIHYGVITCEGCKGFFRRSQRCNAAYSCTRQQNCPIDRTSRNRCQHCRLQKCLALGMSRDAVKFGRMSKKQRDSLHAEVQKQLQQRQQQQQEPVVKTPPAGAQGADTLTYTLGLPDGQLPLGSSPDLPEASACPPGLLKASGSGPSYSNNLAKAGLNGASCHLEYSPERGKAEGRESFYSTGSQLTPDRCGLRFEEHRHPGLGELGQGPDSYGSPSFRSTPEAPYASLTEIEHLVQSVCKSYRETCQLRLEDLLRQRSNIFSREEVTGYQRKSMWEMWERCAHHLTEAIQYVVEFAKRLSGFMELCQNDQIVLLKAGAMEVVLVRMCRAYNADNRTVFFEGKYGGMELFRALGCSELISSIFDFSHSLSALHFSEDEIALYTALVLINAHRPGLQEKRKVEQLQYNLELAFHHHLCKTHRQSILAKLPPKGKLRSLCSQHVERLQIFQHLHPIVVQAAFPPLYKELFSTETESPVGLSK
Description: (§1) In order to determine if these compounds could modulate RORγt activity in the context of the full-length receptor, we used a co-transfection system in HEK293T cells in which full length RORγt was co-transfected along with a luciferase reporter under the control of either a basic promoter containing five copies of an ROR response element (5×RORE) or a minimal IL17 promoter.

[2] = target: T1, full length RORγt; assay: Full-length RORγt co-transfection with IL17-Luc reporter in HEK293T cells; assay type: cell-based; settings: 2 μM ursolic acid
Description: as §1

[3] = test system: EL4 cells; assay: PD-1 surface expression in EL4 cells by flow cytometry; assay type: cell-based, murine; settings: compound 48 hr
Procedure: (§2) Using flow cytometery surface PD-1 expression was analyzed to determine if the decrease in gene expression of PD-1 correlates to a decrease of the protein on the cell surface, Cell: surface PD-1 expression was measured in murine and human T cell lines as well as in ex vivo differentiated murine TH17 cells. […] Next we examined the impact of compound treatment on differentiated murine TH17 cells. […] To determine if there was an increase in the active T cell population during TH17 cell differentiation, the population of CD62L^−PD1^− double negative cells was measured using flow cytometry. […] To determine if the effects of SR0987 on PD-1 expression would be observed in a human cell line, Jurkat T cells were treated with the compound.
Gene expression and Cell sorting. Jurkat T cells were pre-incubated with compounds for 48 hr and activated with phorbol 12-myristate 13-acetate (PMA, 50 ng/mL; Sigma) and ionomycin (1 μg/mL; Sigma) for 5 hr. For qPCR, mRNA was isolated with an RNeasy midi kit using DNase I (Qiagen), and cDNA was synthesized with high capacity cDNA Reverse Transcription kit (Applied Biosystems). IL17A, PD-1, and granzyme B gene expression were normalized to the expression of GAPDH. The sequence of primers used in this study are found in Table 2. For cell sorting, activated Jurkat T cells were stained with APC conjugated anti-human PD-1 antibody (eBioscience). […]

[4] = test system: differentiated TH17 cells; assay: TH17 cell differentiation, flow cytometry; assay type: cell-based, murine; settings: murine TH17 cells
Procedure: as §2
TH17 cell differentiation. For naïve T cell differentiation, CD4^+T cells were enriched by negative selection using a magnetic-activated cell sorter kit (Millipore). Enriched CD4+ T cells activated with 5 μg/mL of plate-abound anti CD3 antibody and 1 μg/mL of anti-CD28 antibody in the presence of 20 μg/mL of anti-IFNγ, 20 μg/mL of anti-IL-4, 1 ng/mL of TGFβ, AND 10 ng/mL of IL-6. Four-five days post differentiation, all cells were stimulated for 5 hr with 5 ng/mL of phorbol-12-myristate-13-acetate (Sigma) and 500 ng/mL of ionomycin (Sigma) contained with brefeldin A solution (eBioscience).

[5] = target: T2, Gal4-RORγ (Homo sapiens, UniProt P51449); assay: cell-based; settings: HEK-293T, read-out: fold induction of reporter gene expression
T2 sequence (P51449 269-508 limits assumed): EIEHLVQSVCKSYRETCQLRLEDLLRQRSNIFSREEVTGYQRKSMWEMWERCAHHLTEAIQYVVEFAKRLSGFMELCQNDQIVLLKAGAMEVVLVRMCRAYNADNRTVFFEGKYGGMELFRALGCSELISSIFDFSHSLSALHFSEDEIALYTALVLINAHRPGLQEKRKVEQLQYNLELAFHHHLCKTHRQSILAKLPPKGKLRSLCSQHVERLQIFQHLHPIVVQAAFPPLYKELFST

## CC(C)=CCC[C@@H](C)[C@H]1CC[C@H]2[C@@H]3CC=C4C[C@@H](O)CC[C@]4(C)[C@H]3CC[C@]12C [desmosterol]
[1]
  reporter gene expression, 5×RORE promoter: minimal induction of the reporter gene
[2]
  reporter gene expression, IL17 promoter: minimal induction of the reporter gene
[3]
  surface expression of PD-1: no effect
[4]
  IL17 production (intracellular staining of IL17A): trend towards increased IL17 production
  surface PD-1 expression: no effect
[5]
  fold induction at 30 µM: ≥ 2
